# pEC50, pIC50: −log10 of the molar value. Like-named read-outs stand apart in the source and are kept apart here.
# Tests used:
# [1] = type: in vivo, Sprague-Dawley rat (Levin DIO rats); details: for percent inhibition of body weight: rat DIO
# Procedure: (§1) DIO male rats are obtained from Charles River Laboratories, Inc. (Wilmington, MA). […] The animals typically achieve a mean body weight of about 500 g. Levin DIO rats are habituated to caging environment for 7 days. During the 3 nights of habituation, animals receive a single intraperitoneal (IP) injection of vehicle. […] Food intake is measured by an automated food intake measuring system (BioDAQ, Research Diets) at 5 sec intervals throughout the course of the study. Body weight is recorded nightly.
# Body composition was measured prior to and after drug treatment using NMR (Echo Medical Systems, Houston, TX). For body composition measurements, rats are briefly placed (~1 min) in a well-ventilated plexiglass tube that was then inserted into a specialized rodent NMR machine. This enabled the calculation of changes in actual grams of fat and dry lean tissue (e.g., grams of body fat after treatment -grams of body fat at baseline = change in grams of body fat) and changes in % body composition for fat and dry lean tissue (e.g., % body fat after treatment -% body fat at baseline = change in % body fat). All data are represented as mean ± SEM. Analysis of variance (ANOVA) and post-hoc tests were used to test for group difference. […] Graphs and results are typically presented as vehicle-corrected changes in percent body weight, body fat and changes in body protein
# Values are as provided as percent inhibition of body weight after infusion for the time periods indicated.
# [2] = rat, in vivo
# Procedure: as §1
# Values are given as percent inhibition of body weight.
# Values are given as percent inhibition of body weight. […] Body Weight: ∼2% difference is statistically significant.
# [3] = rat, in vivo; remark: listed apart in the source
# Procedure: as §1
# Values are given as percent inhibition of body weight. […] Body Weight: ∼2% difference is statistically significant. Food Intake: ∼20% difference is statistically significant.
# [4] = type: in vivo, NIH/Swiss mice; design: key to percent inhibition of food intake: "ns" means "not significant" compared to vehicle
# Procedure: For studies of the effects of PPF polypeptides on longer-term (chronic) food intake and/or body composition, the amount of food consumed over a period of two weeks was measured. For these studies of the effects of PPF polypeptides on longer-term food intake and/or body composition, mice were housed singly for 1 week prior to the beginning of treatment. Throughout the experiments, food intake and body weight were monitored daily. […] At the end of each study, animals were sacrificed after a 2-4 hr fast by isoflurane overdose. Blood was collected into Na-heparin-flushed syringes by cardiac puncture, and plasma was immediately frozen. In some studies, body composition was determined using dual-energy X-ray absorptiometry (DEXA; PixiMus, GE Lunar). In some studies, body composition (such as the amounts of fat and protein) were measured pre- and post treatment using a rodent NMR machine (EchoMRI-700™), in which animals are placed in a restraining tube and placed in the NMR for 2 minutes, and the amount of fat and lean mass, in grams, is quantified.
# GLP Receptor = type: biochemical
# calcitonin receptor = type: binding
# [5] = type: in vivo, C57BL/6 mice; details: mouse DIO
# Source text: An exemplary assay can be one that involves utilization of a diet-induced obese (DIO) mouse model for metabolic disease. […] During the study, the mice can continue to eat their high-fat diet Water can be provided ad libitum throughout the study.
# DIO mice can be implanted with subcutaneous (SC) intrascapular osmotic pumps to deliver either vehicle (50% dimethylsulfoxide (DMSO) in water) or a compound of the invention.
# Body weights and food intake can be measured over regular intervals throughout the study periods. Respiratory quotient (RQ, defined as CO2 production ÷ O2 consumption) and metabolic rate can be determined using whole-animal indirect calorimetry (Oxymax, Columbus Instruments, Columbus, OH). The mice can be euthanized by isoflurane overdose, and an index of adiposity (bilateral epididymal fat pad weight) measured. Moreover, prior to determination of epididymal weight, body composition (lean mass, fat mass) for each mouse can be analyzed using a Dual Energy X-ray Absorptiometry (DEXA) instrument per manufacturer's instructions (Lunar Piximus, GE Imaging System).
# [6] = type: in vivo, Levin rats
# Source text: Values are given as percent reduction of blood glucose level.
# [7] = Gastric emptying (acetaminophen passed); type: in vivo, Levin rats
# Source text: Values are given as percent inhibition of gastric emptying and percent acetaminophen passed.
# CGRP receptors = target: T1, CGRP receptors (Homo sapiens, UniProt O60894+Q16602); type: binding
# T1 construct: SK-N-MC and L6 cells expressing endogenous CGRP receptors; endogenous in cells; host or cells: SK-N-MC cell membranes
# CT receptor = target: T2, CT receptor (Rattus norvegicus, UniProt P32214); type: cell-based
# T2 construct: host or cells: 'C1A' (not explained)
# T2 sequence (P32214 25-479 isoform P32214-2 limits assumed): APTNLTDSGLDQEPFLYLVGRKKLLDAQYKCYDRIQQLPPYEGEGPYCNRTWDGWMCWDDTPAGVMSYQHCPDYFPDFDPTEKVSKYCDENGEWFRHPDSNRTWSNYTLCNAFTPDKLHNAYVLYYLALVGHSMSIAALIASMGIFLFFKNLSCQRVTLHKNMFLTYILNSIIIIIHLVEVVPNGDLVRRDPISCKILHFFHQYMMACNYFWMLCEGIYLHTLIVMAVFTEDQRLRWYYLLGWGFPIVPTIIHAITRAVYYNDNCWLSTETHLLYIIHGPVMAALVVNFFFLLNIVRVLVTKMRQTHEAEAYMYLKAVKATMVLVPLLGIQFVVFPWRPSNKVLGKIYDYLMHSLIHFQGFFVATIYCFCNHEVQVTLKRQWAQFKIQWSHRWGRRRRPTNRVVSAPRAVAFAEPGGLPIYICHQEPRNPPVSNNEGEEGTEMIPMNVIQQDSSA
# [8] = infusions in normal men; cited from earlier work
# T1 sequence (Q16602 23-461): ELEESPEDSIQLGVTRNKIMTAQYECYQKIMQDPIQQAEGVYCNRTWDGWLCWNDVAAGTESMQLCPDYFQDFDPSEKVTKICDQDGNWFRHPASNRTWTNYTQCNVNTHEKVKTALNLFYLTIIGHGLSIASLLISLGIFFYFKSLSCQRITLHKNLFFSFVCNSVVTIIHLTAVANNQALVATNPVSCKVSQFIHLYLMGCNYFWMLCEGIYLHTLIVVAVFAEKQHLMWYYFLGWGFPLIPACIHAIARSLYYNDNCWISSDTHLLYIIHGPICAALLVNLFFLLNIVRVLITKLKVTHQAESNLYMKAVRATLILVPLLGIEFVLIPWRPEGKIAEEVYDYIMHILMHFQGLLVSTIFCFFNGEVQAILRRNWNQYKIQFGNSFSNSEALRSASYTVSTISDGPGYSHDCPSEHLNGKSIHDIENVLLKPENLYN
# T1 sequence (O60894 27-148 partner): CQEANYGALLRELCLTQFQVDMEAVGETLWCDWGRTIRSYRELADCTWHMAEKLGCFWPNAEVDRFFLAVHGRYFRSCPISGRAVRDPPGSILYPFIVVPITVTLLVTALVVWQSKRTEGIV
substance,measurement,setting,value
Amylin,1 Wk BW Loss,"[1]; rat, in vivo",6%
same,1 Wk BW Loss,[2],0%
same,FI Iinhib @ 8 hr,[3],0%
CCK8,percent inhibition of food intake,"[4]; mouse, in vivo",ns
DF(P-CH2SO3)MGWNMFGKR KCNTATCATQRLANELVRLQTYPRTNVGSNTY [SEQ ID NO: 398],pIC50,GLP Receptor; read-out: IC50 in a GLP Receptor cyclase (RIN) assay,6.00
KCNTATCATQRLANFLVRSSNNLGPVLPPTNVGSNTY [rat amylin],pIC50,calcitonin receptor; read-out: Receptor Binding CT,8.52
same,pEC50,GLP Receptor; read-out: Receptor Activation GLP-1/GIP/CT cyclase,8.30
same,percent inhibition of food intake,"[4]; 25 nmol/kg, 30 min",46%
same,percent inhibition of food intake,"[4]; 25 nmol/kg, 60 min",35%
same,percent inhibition of food intake,"[4]; 25 nmol/kg, 120 min",21%
same,percent inhibition of food intake,"[4]; 25 nmol/kg, 180 min",17%
same,percent inhibition of food intake,"[4]; 25 nmol/kg, 240 min",7%
same,percent inhibition of food intake,"[4]; 250 nmol/kg, 30 min",70%
same,percent inhibition of food intake,"[4]; 250 nmol/kg, 60 min",53%
same,percent inhibition of food intake,"[4]; 250 nmol/kg, 120 min",38%
same,percent inhibition of food intake,"[4]; 250 nmol/kg, 180 min",30%
same,percent inhibition of food intake,"[4]; 300 nmol/kg, 30 min",88%
same,percent inhibition of food intake,"[4]; 300 nmol/kg, 60 min",90%
same,percent inhibition of food intake,"[4]; 300 nmol/kg, 120 min",51%
same,percent inhibition of food intake,"[4]; 300 nmol/kg, 180 min",21%
same,60 min ED50,"[4]; Mouse Food Intake, 60 min",9 nmol/kg
same,percent inhibition of body weight,"[5]; infusion 30 nmol/kg/d, Day 2",1.9%
same,percent inhibition of body weight,"[5]; infusion 30 nmol/kg/d, Day 7",1.5%
same,percent inhibition of body weight,"[5]; infusion 30 nmol/kg/d, Day 14",2.1%
same,percent inhibition of body weight,"[5]; infusion 30 nmol/kg/d, Day 21",2.5%
same,percent inhibition of body weight,"[5]; infusion 30 nmol/kg/d, Day 28",2.2%
same,percent inhibition of body weight,"[5]; infusion 75 nmol/kg/d, Day 2",1.5%
same,percent inhibition of body weight,"[5]; infusion 75 nmol/kg/d, Day 7",1.4%
same,percent inhibition of body weight,"[5]; infusion 75 nmol/kg/d, Day 14",2.1%
same,percent inhibition of body weight,"[5]; infusion 100 nmol/kg/d, Day 2",1.6%
same,percent inhibition of body weight,"[5]; infusion 100 nmol/kg/d, Day 7",1.8%
same,percent inhibition of body weight,"[5]; infusion 100 nmol/kg/d, Day 14",3.1%
same,percent inhibition of body weight,"[5]; infusion 100 nmol/kg/d, Day 21",3.8%
same,percent inhibition of body weight,"[5]; infusion 100 nmol/kg/d, Day 28",4.4%
same,percent inhibition of body weight,"[5]; infusion 100 nmol/kg/d, Day 35",6.9%
same,percent inhibition of body weight,"[5]; infusion 100 nmol/kg/d, Day 42",8.6%
same,percent inhibition of body weight,"[5]; infusion 100 nmol/kg/d, Day 49",9.6%
same,percent inhibition of body weight,"[5]; infusion 100 nmol/kg/d, Day 63",10.3%
same,percent inhibition of body weight,"[5]; infusion 100 nmol/kg/d, Day 70",11.4%
same,percent inhibition of body weight,"[5]; infusion 100 nmol/kg/d, Day 77",12%
same,percent inhibition of body weight,"[5]; infusion 100 nmol/kg/d, Day 84",13.4%
same,percent inhibition of body weight,"[5]; infusion 300 nmol/kg/d, Day 2",1.1%
same,percent inhibition of body weight,"[5]; infusion 300 nmol/kg/d, Day 7",-0.7%
same,percent inhibition of body weight,"[5]; infusion 300 nmol/kg/d, Day 14",-0.9%
same,percent inhibition of body weight,"[5]; infusion 300 nmol/kg/d, Day 21",-1.5%
same,percent inhibition of body weight,"[5]; infusion 300 nmol/kg/d, Day 28",-1.5%
same,percent inhibition of body weight,"[1]; infusion 0.7 nmol/kg/d, Day 7",1.6%
same,percent inhibition of body weight,"[1]; infusion 0.7 nmol/kg/d, Day 14",1.3%
same,percent inhibition of body weight,"[1]; infusion 0.7 nmol/kg/d, Day 21",1.6%
same,percent inhibition of body weight,"[1]; infusion 0.7 nmol/kg/d, Day 28",2.1%
same,percent inhibition of body weight,"[1]; infusion 7 nmol/kg/d, Day 7",5.7%
same,percent inhibition of body weight,"[1]; infusion 7 nmol/kg/d, Day 14",7.3%
same,percent inhibition of body weight,"[1]; infusion 7 nmol/kg/d, Day 21",7.9%
same,percent inhibition of body weight,"[1]; infusion 7 nmol/kg/d, Day 28",8.3%
same,percent inhibition of body weight,"[1]; infusion 18.4 nmol/kg/d, Day 7",5.9%
same,percent inhibition of body weight,"[1]; infusion 18.4 nmol/kg/d, Day 14",7.5%
same,percent inhibition of body weight,"[1]; infusion 18.4 nmol/kg/d, Day 21",6.7%
same,percent inhibition of body weight,"[1]; infusion 18.4 nmol/kg/d, Day 28",6.5%
same,percent inhibition of body weight,"[1]; infusion 23 nmol/kg/d, Day 7",7.8%
same,percent inhibition of body weight,"[1]; infusion 23 nmol/kg/d, Day 14",9.4%
same,percent inhibition of body weight,"[1]; infusion 23 nmol/kg/d, Day 21",8.8%
same,percent inhibition of body weight,"[1]; infusion 23 nmol/kg/d, Day 28",8.8%
same,percent inhibition of body weight,"[1]; infusion 23 nmol/kg/d, Day 35",9.5%
same,percent inhibition of body weight,"[1]; infusion 23 nmol/kg/d, Day 42",10%
same,percent inhibition of body weight,"[1]; infusion 23 nmol/kg/d, Day 49",9.8%
same,percent inhibition of body weight,"[1]; infusion 23 nmol/kg/d, Day 56",9.1%
same,percent inhibition of body weight,"[1]; infusion 69 nmol/kg/d, Day 7",7.6%
same,percent inhibition of body weight,"[1]; infusion 69 nmol/kg/d, Day 14",9.3%
same,percent inhibition of body weight,"[1]; infusion 69 nmol/kg/d, Day 21",11.1%
same,percent inhibition of body weight,"[1]; infusion 69 nmol/kg/d, Day 28",12.2%
same,percent inhibition of body weight,"[1]; infusion 69 nmol/kg/d, Day 49",15.4%
same,percent inhibition of body weight,"[1]; infusion 69 nmol/kg/d, Day 56",15.7%
same,percent inhibition of body weight,"[1]; infusion 69 nmol/kg/d, Day 63",16.2%
same,percent inhibition of body weight,"[1]; infusion 69 nmol/kg/d, Day 70",15.8%
same,percent inhibition of body weight,"[1]; infusion 70 nmol/kg/d, Day 7",7.6%
same,percent inhibition of body weight,"[1]; infusion 70 nmol/kg/d, Day 14",8.9%
same,percent inhibition of body weight,"[1]; infusion 70 nmol/kg/d, Day 21",10.2%
same,percent inhibition of body weight,"[1]; infusion 70 nmol/kg/d, Day 28",11.8%
same,"%Reduction of blood glucose, OGTT, 30","[6]; 23 nmol/kg/d, day 26",2.3%
same,"%Reduction of blood glucose, OGTT, 60","[6]; 23 nmol/kg/d, day 26",19.2%
same,"%Reduction of blood glucose, OGTT, 120","[6]; 23 nmol/kg/d, day 26",2.1%
same,"%Reduction of blood glucose, OGTT, Basal","[6]; 23 nmol/kg/d, day 26",4%
same,"%Reduction of blood glucose, OGTT, 15","[6]; 69 nmol/kg/d, day 14",-0.2%
same,"%Reduction of blood glucose, OGTT, 30","[6]; 69 nmol/kg/d, day 14",11%
same,"%Reduction of blood glucose, OGTT, 60","[6]; 69 nmol/kg/d, day 14",5.9%
same,"%Reduction of blood glucose, OGTT, 120","[6]; 69 nmol/kg/d, day 14",1.2%
same,"%Reduction of blood glucose, OGTT, Basal","[6]; 69 nmol/kg/d, day 14",6%
same,%inhibition of gastric emptying,"[7]; 69 nmol/kg/d, 21 days on study",45%
same,%passed (acetaminophen),"[7]; 69 nmol/kg/d, 21 days on study",55%
same,%inhibition of gastric emptying,"[7]; 100 µg/kg/d, 26 days on study",24%
same,%passed (acetaminophen),"[7]; 100 µg/kg/d, 26 days on study",76%
"[Ser117, dLeu119]leptin(116-122)-Amylin(1-7)-[^11,18Arg]sCT(8-27)-Amylin(33-37) [Compound 16]",binding to the CGRP receptor (RBA = receptor binding assay),CGRP receptors,some binding
same,binding to the CT receptor (RBA = receptor binding assay),calcitonin receptor,bound
same,activation of the CT receptor (C1A assay),CT receptor,able to activate
same,"cumulative intake, % that of controls","[4]; mouse, in vivo",34-38%
brain natriuretic peptide [BNP],increase in sodium excretion,[8],2 fold
same,"reduction in plasma renin, angiotensin II and aldosterone secretion",[8],50%
